The results in this text go back to ChEMBL document CHEMBL1136447, “Biological investigation and structure-activity relationship studies on azadirone from Azadirachta indica A. Juss” (2003).

The test system of assay [1] is A498. The assay can be described thus: In vitro cytotoxic activity against renal (A498) cell line. The class given is functional. The conditions noted are these: Homo sapiens.
For assay [2], the system named is A498. The assay can be described thus: In vitro cytotoxic activity against renal (A498) cell line at a concentration of 10e-5 M. The class given is functional, Homo sapiens.
Assay [3] relates to DU-145. In words: In vitro cytotoxic activity against prostate (DU145) cell line. The class given is functional. The conditions noted are these: Homo sapiens.
For assay [4], the system named is DU-145. The assay can be described thus: In vitro cytotoxic activity against prostate (DU145) cell line at a concentration of 10e-5 M. The class given is functional, Homo sapiens.
The test system of assay [5] is M14. In words: In vitro cytotoxic activity against Melanoma (M14) cell line at a concentration of 10e-5 M. The class given is functional, Homo sapiens.
The test system of assay [6] is MCF7. In words: In vitro cytotoxic activity against breast (MCF-7/ADR) cell line. The conditions noted are these: Homo sapiens. The class given is functional.
For assay [7], the system named is MCF7. In words: In vitro cytotoxic activity against breast (MCF-7/ADR) cell line at a concentration of 10e-5 M. The class given is functional, Homo sapiens.
The test system of assay [8] is M14. In words: In vitro cytotoxic activity against Melanoma (M14) cell line. The class given is functional. The conditions noted are these: Homo sapiens.
Assay [9] deals with SK-OV-3. The assay can be described thus: In vitro cytotoxic activity against Ovarian (SK-OV3) cell line. The class given is functional. The conditions noted are these: Homo sapiens.
Assay [10] has as its system SW-620. In words: In vitro cytotoxic activity against colon (SW620) cell line. The class given is functional. The settings on record: Homo sapiens.
The test system of assay [11] is SW-620. The assay can be described thus: In vitro cytotoxic activity against colon (SW620) cell line at a concentration of 10e-5 M. The class given is functional, Homo sapiens.
In assay [12] the test system is U-251. In words: In vitro cytotoxic activity against CNS(U251) cell line. The class given is functional. The conditions noted are these: Homo sapiens.
For assay [13], the system named is U-251. The assay can be described thus: In vitro cytotoxic activity against CNS(U251) cell line at a concentration of 10e-5 M. The class given is functional, Homo sapiens.
Assay [14] deals with SK-OV-3. In words: In vitro cytotoxic activity against Ovarian (SK-OV3) cell line at a concentration of 10e-5 M. The class given is functional, Homo sapiens.
The subject of assay [15] is NCI-H522. In words: In vitro cytotoxic activity against lung (H522) cell line. The settings on record: Homo sapiens.
Assay [16] has as its system NCI-H522. The assay can be described thus: In vitro cytotoxicity against H522 (human adenocarcinoma) cell line at a concentration of 10e-5 M.
Assay [17] has as its system NCI-H522. The assay can be described thus: In vitro cytotoxic activity against lung (H522) cell line at a concentration of 10e-5 M.

By GI50 is commonly meant the concentration that inhibits growth by half. Low values mean more potent growth inhibition, high ones less potent growth inhibition.

`CCOC1=C[C@@]2(C)C(C[C@@H](OC(C)=O)[C@@]3(C)C4=CC[C@@H](c5ccoc5)[C@]4(C)CCC23)C(C)(C)C1=O` (stereo not given in full): the GI50 in assay [1] is 40 µM; in assay [3], 50 µM; in assay [6], 8 µM; in assay [8], 20 µM; in [9], 40 µM; in assay [10] it was 5 µM. The results for the GI50 in assay [12] and in [15] were 5 µM and 30 µM, respectively. The Growth in [2] is given as 33%; in assay [4], 35%; in assay [5] it was 40%; in [7] it was 51%; in [11], 65%; in assay [13], 70%. The Growth in assay [14] is on record as 61%; in assay [16], 52%.

For `CCN(CC)CCO/N=C1\C=C[C@@]2(C)C(C[C@@H](OC(C)=O)[C@@]3(C)C4=CC[C@@H](c5ccoc5)[C@]4(C)CCC23)C1(C)C` (stereo not given in full), the GI50 was 8 µM in assay [1]; 7 µM in [3]; 6 µM in assay [6]; 4 µM in assay [8]; 3 µM in assay [9]; 4 µM in [10]. Moreover, the GI50 in assay [12] came out at 4 µM; in assay [15], 3 µM. Moreover, the Growth in assay [2] amounted to 7%; in [4], 46%; in assay [5], 35%; in assay [7], 28%; in assay [11], 23%; in assay [13] it was 5%. Also, the values for the Growth in [14] and in assay [16] were 7% and 26%, respectively.

Regarding `CC1(C)C(=O)C=C[C@@]2(C)C1C[C@@H](O)[C@@]1(C)C3=CC[C@@H](c4ccoc4)[C@]3(C)CCC21` (stereo not given in full), the GI50 in assay [1] was > 100 µM; in assay [3], 9.5 µM; in assay [6] it was 5 µM; in [8], 9 µM; in assay [9], > 100 µM; in assay [10] it was > 100 µM. Also, the GI50 in assay [12] is 3.5 µM; in [15], > 100 µM. Moreover, the Growth in assay [2] is listed as 65%; in assay [4], 46%; in assay [5] it was 15.8%; in assay [7] it was 36%; in assay [11], 100%; in assay [13], 46%. For the same compound, the figures for the Growth in assay [14] and in [16] were 64% and 100%, respectively.

As for `COC1=C[C@@]2(C)C(C[C@@H](OC(C)=O)[C@@]3(C)C4=CC[C@@H](c5ccoc5)[C@]4(C)CCC23)C(C)(C)C1=O` (stereo not given in full), the GI50 was 40 µM in assay [1]; 40 µM in assay [3]; 95 µM in assay [6]; 40 µM in assay [8]; 35 µM in [9]; 20 µM in [10]. For the same compound, the values for the GI50 in assay [12] and in [15] were 20 µM and 40 µM, respectively. In addition, the Growth is reported as 50% in [2]; 47% in assay [4]; 67% in assay [5]; 58% in assay [7]; 35% in assay [11]; 63% in [13]. Besides, the Growth in [14] worked out at 38%; in assay [16], 82%.

As for `CC1(C)C(=O)C=C[C@@]2(C)C1C[C@@H](OC(=O)CCl)[C@@]1(C)C3=CC[C@@H](c4ccoc4)[C@]3(C)CCC21` (stereo not given in full), the GI50 amounted to 4 µM in assay [1]; 5 µM in assay [3]; 3 µM in assay [6]; 5 µM in [8]; 5 µM in assay [9]; 5 µM in assay [10]. In addition, the results for the GI50 in assay [12] and in [15] were 6 µM and 4 µM, respectively. The Growth was -8% in assay [2]; 13% in assay [4]; -3% in assay [5]; -2% in assay [7]; 12% in assay [11]; 22% in [13]. The Growth in assay [14] was 14%; in assay [17], 5%.
